Here are results for seven compounds from patent US7754759B2, “Arylsulfonyl chromans as 5-HT6 inhibitors” (Roche Palo Alto LLC, priority 2005, dated 2010).

Data set [1] deals with T1, recombinant human 5-HT6 receptor (Homo sapiens, UniProt P50406).
T1 construct: expressed in transfected cells
Briefly: Radioligand binding, [3H]LSD competition at 5-HT6 receptor. The following applies: membranes of HEK293 cells expressing recombinant human 5-HT6 receptor, 37° C., read-out: pKi for the 5-HT6 receptor (converted). The procedure:
(§1) The binding activity of compounds of this invention in vitro was determined as follows. Duplicate determinations of 5-HT6 ligand affinity were made by competing for binding of [^3H]LSD in cell membranes derived from HEK293 cells stably expressing recombinant human 5-HT6 receptor. Duplicate determinations of 5-HT2A ligand affinity were made by competing for binding of [^3H]Ketanserin (3-(2-(4-(4-fluorobenzoyl)piperidinol)ethyl)-2,4(1H,3H)-quinazolinedione) in cell membranes derived from CHO-K1 cells stably expressing recombinant human 5-HT2A receptor. Membranes were prepared from HEK 293 cell lines by the method described by Monsma et al., Molecular Pharmacology, Vol. 43 pp. 320-327 (1993), and from CHO-K1 cell lines as described by Bonhaus et al., Br J Pharmacol. June; 115(4):622-8 (1995).
(§2) For estimation of affinity at the 5-HT6 receptor, all determinations were made in assay buffer containing 50 mM Tris-HCl, 10 mM MgSO4, 0.5 mM EDTA, 1 mM ascorbic acid, pH 7.4 at 37° C., in a 250 microliter reaction volume. […]
(§3) Assay tubes containing [^3H] […] LSD or [^3H]Ketanserin were determined as radioactive counts per minute using Packard TopCount.
(§4) Displacement of [^3H]LSD or [^3H]Ketanserin from the binding sites was quantified by fitting concentration-binding data to a 4-parameter logistic equation: […]

Data set [2] deals with T2, recombinant human 5-HT2A receptor (Homo sapiens, UniProt P28223).
T2 construct: expressed in transfected cells
T2 sequence (P28223 whole entry): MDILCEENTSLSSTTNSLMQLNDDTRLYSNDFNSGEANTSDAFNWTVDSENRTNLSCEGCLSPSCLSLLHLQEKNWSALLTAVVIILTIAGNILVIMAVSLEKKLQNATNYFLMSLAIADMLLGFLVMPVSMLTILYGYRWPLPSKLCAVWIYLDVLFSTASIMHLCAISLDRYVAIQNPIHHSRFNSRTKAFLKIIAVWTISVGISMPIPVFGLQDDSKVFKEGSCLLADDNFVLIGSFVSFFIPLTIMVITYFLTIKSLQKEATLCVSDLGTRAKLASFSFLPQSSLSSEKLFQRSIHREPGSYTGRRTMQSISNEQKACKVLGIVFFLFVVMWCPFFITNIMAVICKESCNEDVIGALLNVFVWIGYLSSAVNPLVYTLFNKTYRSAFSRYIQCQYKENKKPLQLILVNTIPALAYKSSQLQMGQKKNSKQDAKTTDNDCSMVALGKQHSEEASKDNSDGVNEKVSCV
Kind of data set: Radioligand binding, [3H]Ketanserin competition at 5-HT2A receptor. The following applies: membranes of CHO-K1 cells expressing recombinant human 5-HT2A receptor, 32° C., read-out: pKi for the 5-HT2A receptor (converted). How it is done: as §1, §2, §3, §4

Structures can show the parent of a compound that is named as a salt.

T1 sequence (P50406 whole entry): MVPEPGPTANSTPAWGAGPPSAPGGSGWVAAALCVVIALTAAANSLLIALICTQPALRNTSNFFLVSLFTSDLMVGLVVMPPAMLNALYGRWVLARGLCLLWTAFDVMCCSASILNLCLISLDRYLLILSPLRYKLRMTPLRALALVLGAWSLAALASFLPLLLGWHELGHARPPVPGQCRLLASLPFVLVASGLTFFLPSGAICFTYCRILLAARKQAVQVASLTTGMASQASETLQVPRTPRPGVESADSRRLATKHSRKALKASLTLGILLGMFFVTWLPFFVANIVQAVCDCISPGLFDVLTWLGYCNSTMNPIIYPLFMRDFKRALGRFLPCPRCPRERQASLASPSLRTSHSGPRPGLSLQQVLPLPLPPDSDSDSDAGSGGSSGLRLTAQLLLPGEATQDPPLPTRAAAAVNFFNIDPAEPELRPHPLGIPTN

Broadly, the melting point is the temperature, or range, at which the solid turns liquid. `CNCC1CC(=O)c2ccc(S(=O)(=O)c3ccccc3)cc2O1` (centres unmarked) (as salt: TFA) [Compound 1, 7-Benzenesulfonyl-2-methylaminomethyl-chroman-4-one]: the melting point lay in the range of 157.8 to 189.6 °C.

For `CNCC1CC(C)(O)c2ccc(S(=O)(=O)c3ccccc3)cc2O1` (centres unmarked) (as salt: trifluoroacetate) [Compound 4, 7-Benzenesulfonyl-4-methyl-2-methylaminomethyl-chroman-4-ol], the melting point lay within 163.9 to 165.3 °C.

`CNCC1CCc2ccc(S(=O)(=O)c3ccccc3)cc2O1` (centres unmarked) (as salt: TFA) [Compound 3, (7-Benzenesulfonyl-chroman-2-ylmethyl)-methyl-amine] returned a melting point of 196.2 to 198.2 °C.

The compound `C[C@H](O)C(=O)NC[C@H]1CCc2ccc(S(=O)(=O)c3ccccc3)cc2O1` (stereo in doubt) [Compound 30, (R)-N-(7-Benzenesulfonyl-chroman-2-ylmethyl)-2-hydroxy-propionamide] gave a melting point of 129.5 to 131.5 °C.

Consider `CNC[C@H]1CCc2ccc(S(=O)(=O)c3cccc(F)c3)cc2O1` [Compound 35, (R)-[7-(3-Fluoro-benzenesulfonyl)-chroman-2-ylmethyl]-methyl-amine], for which the melting point was 259 to 261 °C.

With `CNC[C@@H]1CCc2ccc(S(=O)(=O)c3ccccc3)cc2O1` [Compound 7, (S)-(7-Benzenesulfonyl-chroman-2-ylmethyl)-methyl-amine], the Ki in data set [1] is approximately 0.1 nM; in data set [2], approximately 56.2 nM.

Consider `NC[C@H]1CCc2ccc(S(=O)(=O)c3cccc(F)c3)cc2O1` [Compound 46, (R)-C-[7-(3-Fluoro-benzenesulfonyl)-chroman-2-yl]-methylamine], for which the melting point fell in the range of 257.1 to 258.9 °C.
